Measured values as given in patent US11739083B2, “Disposable sensor chip with reagent including 2-substituted benzothiazolyl-3-substituted phenyl-5-substituted sulfonated phenyl-2H-tetrazolium salt” (TERUMO KABUSHIKI KAISHA, priority 2016, dated 2023).

What was measured:
[1] = Evaluation of sensitivity (colour development with glucose, GDH-FAD, m-PMS, nickel; gradient versus WST-4)
Protocol: Separately, 100 μL of RO water was added to 7 mg of a glucose dehydrogenase that uses flavin adenine dinucleotide (FAD) as a coenzyme (GDH-FAD) (manufactured by TOYOBO CO., LTD., product No.: GLD-351), the enzyme was dissolved, and thus a GDH solution was produced. Furthermore, 200 μL of RO water was added to 3.5 mg of 1-methoxy-5-methylphenazium methyl sulfate (m-PMS) (manufactured by DOJINDO LABORATORIES), and the compound was dissolved therein. Thus, an s-PMS solution was produced. 1 mL of RO water was added to 129 mg of nickel chloride to dissolve the salt, and thus a nickel solution was produced.
40 μL of the reaction solution was added to 10 μL each of an aqueous glucose solution at a concentration of 125 mg/dL, an aqueous glucose solution at a concentration of 250 mg/dL, and an aqueous glucose solution at a concentration of 1,000 mg/dL, and the mixtures were allowed to develop color. The spectra were measured with a spectrophotometer (measurement cell length: 50 μm) (n=1). […] Thus, the gradient (gradientsample) was determined.
40 μL of the control reaction solution was added to 10 μL each of an aqueous glucose solution at a concentration of 125 mg/dL, an aqueous glucose solution at a concentration of 250 mg/dL, and an aqueous glucose solution at a concentration of 1,000 mg/dL, and the mixtures were allowed to develop color. The spectra were measured with a spectrophotometer (measurement cell length: 50 μm) (n=1). For each of the spectra, the absorbance at 650 nm, which is the measurement wavelength (λmax) of WST-4, was measured, and the glucose concentration in the colored solution and the absorbance were plotted on the horizontal axis and the vertical axis, respectively. Thus, the gradient (gradientWST-4) was determined.
FIG. 2 is a graph showing the relationship between the glucose concentration and the absorbance of produced formazan in relation to the tetrazolium compound 1 and WST-4. […] Meanwhile, the gradient serves as an index for the color development intensity of each compound. Therefore, when the value obtained by dividing the gradientsample by the gradientWST-4 (gradientsample/gradientWST-4) is greater than one-fold, it is implied that the intensity of color development on the longer wavelength side is higher compared to WST-4, which is a well-known indicator reagent.

[2] = Evaluation Example 3: estimation of molar extinction coefficient; assay type: physicochemical; conditions: colored chelate compound of formazan and Ni2+ at λmax=635 nm; FIG. 18
Protocol: A measurement solution was produced in the same manner as described in the section for the evaluation of the chelation rate and the maximum absorption wavelength (λmax), using the tetrazolium compound 1 of Example 1.
Estimation of the molar extinction coefficient was carried out using the blood glucose meter sensor of FIG. 13. At this time, it is assumed that tetrazolium compound 1 reacts with glucose at a ratio of 1:1 (molar ratio). The concentration (mol/L) of β-glucose include in the spotted aqueous glucose solution was designated as x, and the value obtained by calculating the absorbance at 630 nm of the blood glucose meter sensor having aqueous glucose solution spotted thereon, to a value per 1 cm, was designated as y. The gradient of a straight line obtained at that time is designated as the molar extinction coefficient (calculated based on a glucose molecular weight 180.16, and a β-glucose ratio in the solution of 62%).
FIG. 18 presents a graph obtained when the concentration (mol/L) of β-glucose was used as x value, and the absorbance at λmax=635 nm of colored chelate compound of formazan and Ni^2+, which was calculated into a value per 1 cm (abs/cm), was used as y value. From the graph, the molar extinction coefficient at λmax=635 nm of a colored chelate compound of formazan and Ni^2+ is ε=22,594 L/mol·cm.

molar extinction coefficient ε [2]: 22,594 L/mol·cm
SMILES: COc1ccc2nc(-n3nc(-c4ccc(S(=O)(=O)O)cc4S(=O)(=O)[O-])n[n+]3-c3ccc(OC)c(S(=O)(=O)O)c3)sc2c1 [Example 1]
ratio gradientsample/gradientWST-4 ([1]; FIG. 2): about 2.4 | gradient (absorbance versus glucose concentration) ([1]; FIG. 2, compound 1 at its λmax with nickel, WST-4 at 650 nm without nickel): 0.0063 | Sensitivity, comparison with Comparative Example 5 (rating) ([1]; gradientsample/gradientWST-4, absorbance at λmax versus glucose concentration, cell length 50 μm): ⊙ (gradientsample/gradientWST-4) was 2 or greater)
